Bridge positions count the residues as written; N and C are the ends. Ends that are not written are not given here.
Columns and labels:
[1] = tested on: mAb MG22; assay: Inhibition of binding of anti-GD3 mAb MG22 to GD3+ Melur melanoma cells by peptide mimic
Text: (§1) FIGS. 2a, 2b and 2c are representations of inhibition of binding of anti-GD3 monoclonal antibody to GD3+ cells by peptide mimics of the present invention. Data is shown for pMG21-15-1 (FIG. 2a), pMG21-8-4 (FIG. 2b) and pMG22-8-1 (FIG. 2c) for inhibition of binding of mAb MG22 (-∘-); mAb MG21 (-●-) and mAb 763.74 (-Δ-).
FIG. 3 is a representation of the effect of dithiothrietol (DTT) on inhibition of MG22 binding to GD2/3+Melur cells by […]. […] This inhibitory effect was abolished by the pre-incubation of pMG22-8-1 with 10 mM DTT (—SH), confirming that the inhibitory peptide was in its cyclized form (-S-S-). 763.74, a monoclonal antibody that recognizes another melanoma-associated antigen—the High Molecular Weight-Melanoma Associated Antigen (HMW-MAA), is used here as an irrelevant antibody to show the binding specificity of GD2/3 peptide mimic pMG22-8-1 for mAb MG22; and p763.74 is a HMW-MAA peptide mimic isolated using the mAb 763.74. It is used here as an irrelevant peptide mimic to show the binding specificity of the GD3-specific mAb MG22 for pMG22-8-1.
(§2) For further characterization, the pVIII gene inserts of positive phage clones identified by reverse ELISA were sequenced. Peptides encoded by these sequences were synthesized and then tested for GD3 specificity. This was done by assessing the peptides' ability to compete with MG21 or MG22 for binding to GD3-bearing melanoma cell line in vitro.
(§3) Cyclized pMG21-15-1, pMG21-8-4 and pMG22-8-1 were tested for inhibiting the binding of the anti-GD2 mAb to Melur melanoma cells.
The effect of 10 mM DTT on the inhibition of binding of anti-GD3 mAb to GD3+ cells was investigated.

[2] = Induction of anti-peptide and anti-carrier antibodies in immunized mice; format: in vivo
Text: FIGS. 4a, 4b, 4c are representations of induction of the anti-peptide and anti-carrier reponses. Mice were immunized on day 0, 14, 28 and 42. Sera was collected on day 10, 24 and 38. Results are shown for mice immunized with p763.74 (FIG. 4a), pMG22-8-1 (FIG. 4b) and KLH (FIG. 4c). Preimmune sera is indicated as -∘-; reaction against the immunized peptide is indicated as -●-; and reaction against peptide not used for immunization is indicated as -Δ-.
Mice were immunized with pMG22-8-1, p763.74 peptides or KLH. Sera was tested on day 10, 24 and 38. […] In the group immunized with pMG22-8-1, the titer of antibodies reacting against the GD3 peptide mimic is observed.

[3] = tested on: GD3 positive (Melur) cells; assay: Reactivity of sera from immunized mice to GD3 positive (Melur) versus GD3 negative (LG2) cells by ELISA; format: in vivo; conditions: following two immunizations, Melur vs LG2 cells, sera day 24 and 38
Procedure: FIGS. 5a and 5b are representations of the selective reactivity of sera from mice immunized with GD3 peptide mimic pMG22-8-1. Immunizations were carried out on […], day 14, day 28 and day 42. Serum samples were collected on day 24 and day 38 and tested for binding to GD3 positive or negative cells. Results are shown for a peptide mimic according to the present invention (pMG22-8-1; FIG. 5b) and control peptide (p763.74; FIG. 5a).
Mice were immunized with peptide pMG22-8-1 (SEQ ID NO:6) on days 0, 14, 28 and 42. Sera was collected on days 24 and 38. The sera was tested for reactivity to GD3 positive (Melur) cells compared with GD3 negative cells (LG2) by ELISA.

[4] = tested on: mAb MG21; assay: Inhibition of binding of anti-GD3 mAb MG21 to GD3+ Melur melanoma cells by peptide mimic; conditions: cyclized peptide; FIG. 2a, 2b
Text: as §1, §2, §3

[5] = target: anti-GD3 monoclonal antibody MG22; assay: inhibition of mAb MG22 binding to GD2/3+ Melur melanoma cells by cyclized peptide, at 500 µM peptide

For “MCPTDMPASLCM (disulfide 2-11 (inferred)) [pMG22-8-1, GD3 peptide mimic isolated using MG22 from LX-8 phage library]”, the “inhibition of mAb MG22 binding to GD3+ cells after pre-incubation of the peptide with DTT” value ([1]; 10 mM DTT (reduced, non-cyclized peptide)) was “abolished”, the “inhibition of binding of MG22 to Melur cells” value ([1]; at 500 μM peptide, GD2/3+ Melur cells, dose-dependent) was “up to 72%” and the “inhibition of binding of panning mAb MG22 to Melur melanoma cells” value ([1]; cyclized peptide, FIG. 2c) was “inhibited in a specific and dose-dependent manner”. The “titer of non-specific antibodies reacting to p763.74 (peptide not used for immunization)” value ([2]; group immunized with pMG22-8-1, FIG. 4b) was “increase”, the “titer of serum antibodies reacting to the immunogen” value ([2]; mice immunized day 0, 14, 28, 42, sera day 10, 24, 38) was “high titer” and the “mice whose serum reacted selectively to GD3 positive cell line” value [3] was “one out of eight mice”.

For “QPFPCYSNAPCQSPS (not fully specified (bridges); cysteine pairing not given here) [pMG21-15-1, GD3 peptide mimic isolated using MG21 from X15 phage library]”, the “inhibition of binding of panning mAb MG21 to Melur melanoma cells” value [4] was “inhibited in a specific and dose-dependent manner”.

In the case of “RCPPEYVAADCD (disulfide 2-11 (inferred)) [pMG21-8-4, GD3 peptide mimic isolated using MG21 from LX-8 phage library]”, the “inhibition of binding of panning mAb MG21 to Melur melanoma cells” value [4] is reported as “inhibited in a specific and dose-dependent manner”.

With MCPTDMPASLCM (disulfide 2-11 (inferred)) [pMG22-8-1] the % inhibition of MG22 binding to Melur cells [5] was 72%.

Source: patent publication US6998237B1, “GD3 peptide mimics” (Health Research, Inc., priority 2002, dated 2006)
